Source: patent publication US11718612B2, “Inhibitors of receptor interacting protein kinase I for the treatment of disease” (Board of Regents, The University of Texas System, priority 2019, dated 2023)

How the values were obtained:
RIPK1 = RIPK1 (Homo sapiens (Human), UniProt Q13546); assay: ADP-Glo kinase assay, RIPK1 activity; assay type: biochemical; settings: 5 nM RIPK1, 50 μM ATP, 6 hr reaction
Method: In order to measure RIPK1 activity the ADP-Glo kinase assay (Promega, Catalog #V7002) was used to measure the conversion of ATP to ADP. This enzymatic assay was performed in a 384-well white, Optiplate (Perkin Elmer, Catalog #6007299) with assay buffer consisting of 50 mM HEPES pH 7.5 (Gibco, Catalog #15630-080), 50 mM NaCl (Teknova, Catalog #S0252), 30 mM MgCl2 (Ambion, Catalog #AM9530G), 1 mM DTT (Santa Cruz Biotechnology, Catalog #sc-29089), 0.05% BSA (Sigma, Catalog #A3059-50G) and 0.02% CHAPS (Sigma, Catalog #C5070-5G). Stock solutions of the test compounds were prepared in 100% DMSO (Sigma, Catalog #D2650) and serially diluted 1:3 using 100% DMSO. Compounds were additionally diluted 1:40 in assay buffer, and 2 μL/well were transferred to the assay plate. 4 μL/well (final concentration of 5 nM) of RIPK1 protein (SignalChem, Catalog #R07-11G-05) diluted in assay buffer and added to the assay plate followed by a 10 minute preincutation at room temperature. 4 μL/well of ATP (Promega, Catalog #V7002) (final concentration of 50 μM) diluted in assay buffer were then added to the assay plate followed by a 6 hr reaction time. Final concentrations of RIPK1 and ATP refer to a 10 μL volume. Luminescence was measured using a BioTek Synergy™ NEO plate reader. IC50 values were calculated using a four-parameter logistic curve fit using Genedata Screener software.

U937 cells = assay: Human U937 cellular necroptosis assay; assay type: cell-based; settings: U-937; U937 cells stimulated with 25 ng/mL human TNFalpha and 25 μM z-VAD-FMK; 22 hr; Cell Titer-Glo viability
Method: Human U937 Cellular Necroptosis Assay
The human monocytic cell line U937 (CRL-1593.2) may be purchased from ATCC. The cells are routinely maintained in RPMI-1640 Medium (Gibco, Catalog #11875-093) supplemented with 10% heat inactivated fetal bovine serum (Gibco, Catalog #16140-071), 100 units/mL penicillin and 100 μg/mL streptomycin (Gibco, Catalog #15140-122), in a humidified incubator (37° C., 5% CO2). For the assay, cells are resuspended in RPMI-1640 phenol red free Media (Gibco, Catalog #11835-030) supplemented with 10% fetal bovine serum (Sigma, Catalog #F2442), 100 units/mL penicillin and 100 ug/mL streptomycin. […] Stock solutions of the test compounds are prepared in 100% DMSO (Sigma, Catalog #D2650) and serially diluted 1:3 using 100% DMSO. Compounds are additionally diluted 1:40 in assay medium, and 10 μL/well was transferred to the plate. Following the compound addition, the plate is incubated at 37° C. and 5% CO2 for 22 hr. After 22 hr, viability is assessed with the addition of 20 μL of Cell Titer-Glo 2.0 (Promega, Catalog #G9243). The tissue culture plate is shaken on an orbital shaker at 300 RPM for 15 minutes at room temperature in the dark. Luminescence is measured using a PerkinElmer Envision™ plate reader. IC50 values are calculated using a four-parameter logistic curve fit using Genedata Screener software.

RIPK1, sequence (Q13546 1-327): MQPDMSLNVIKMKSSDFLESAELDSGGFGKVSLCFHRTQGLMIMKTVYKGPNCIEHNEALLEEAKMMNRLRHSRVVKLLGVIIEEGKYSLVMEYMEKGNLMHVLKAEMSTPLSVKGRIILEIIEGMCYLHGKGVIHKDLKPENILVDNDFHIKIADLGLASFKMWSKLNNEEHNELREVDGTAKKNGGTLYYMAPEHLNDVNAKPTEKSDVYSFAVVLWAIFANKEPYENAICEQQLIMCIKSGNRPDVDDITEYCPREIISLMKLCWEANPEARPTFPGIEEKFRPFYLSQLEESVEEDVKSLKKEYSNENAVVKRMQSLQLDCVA

| IC50 (RIPK1) | Structure (SMILES) | IC50 (U937 cells) |
| --- | --- | --- |
| 0.11 µM | Cc1nc(C(=O)Nc2cccc(Cl)c2F)nn1Cc1cnccn1 [Example 4, N-(3-Chloro-2-fluoro-phenyl)-5-methyl-1-(pyrazin-2-ylmethyl)-1,2,4-triazole-3-carboxamide] | 1430 nM |
| 0.245 µM | O=C(Nc1cccc(Cl)c1F)c1n[nH]c(Cc2ccccc2)n1 [Example 9, 5-benzyl-N-(3-chloro-2-fluoro-phenyl)-1H-1,2,4-triazole-3-carboxamide] | 6300 nM |
| 0.702 µM | Cn1nc(C(=O)Nc2cccc(Cl)c2F)nc1Cc1ccccc1 [Example 10, 5-Benzyl-N-(3-chloro-2-fluoro-phenyl)-1-methyl-1,2,4-triazole-3-carboxamide] | 9220 nM |
| 4.06 µM | Cn1cc(-c2cc(F)c(F)c(NC(=O)c3n[nH]c(Cc4ccccc4)n3)c2)cn1 [Example 11, 5-Benzyl-N-(2,3-difluoro-5-(1-methyl-1H-pyrazol-4-yl)-phenyl)-1H-1,2,4-triazole-3-carboxamide] | > 10000 nM |
| 1.01 µM | O=C(Nc1cccc(Cl)c1F)c1nnc(Cc2ccccc2)o1 [Example 19, 5-Benzyl-N-(3-chloro-2-fluorophenyl)-1,3,4-oxadiazole-2-carboxamide] | > 10000 nM |
| 0.521 µM | O=C(Nc1ccccc1F)c1n[nH]c(Cc2ccccc2)n1 [Example 20, 5-benzyl-N-(2-fluorophenyl)-1H-1,2,4-triazole-3-carboxamide] | 6230 nM |
| 0.854 µM | O=C(Nc1cccc(Cl)c1)c1n[nH]c(Cc2ccccc2)n1 [Example 21, 5-benzyl-N-(3-chlorophenyl)-1H-1,2,4-triazole-3-carboxamide] | > 10000 nM |
| 1.57 µM | O=C(Nc1cccc(F)c1F)c1n[nH]c(Cc2ccccc2)n1 [Example 22, 5-benzyl-N-(2,3-difluorophenyl)-1H-1,2,4-triazole-3-carboxamide] | > 10000 nM |
| 2.25 µM | O=C(Nc1cc(F)cc(F)c1F)c1n[nH]c(Cc2ccccc2)n1 [Example 23, 5-benzyl-N-(2,3,5-trifluorophenyl)-1H-1,2,4-triazole-3-carboxamide] | > 10000 nM |
| 3.36 µM | O=C(Nc1cc(Cl)cc(Cl)c1)c1n[nH]c(Cc2ccccc2)n1 [Example 24, 5-benzyl-N-(3,5-dichlorophenyl)-1H-1,2,4-triazole-3-carboxamide] | > 10000 nM |
| 4.35 µM | Cn1cc(-c2cc(Cl)c(F)c(NC(=O)c3n[nH]c(Cc4ccccc4)n3)c2)cn1 [Example 25, 5-benzyl-N-(3-chloro-2-fluoro-5-(1-methyl-1H-pyrazol-4-yl)phenyl)-1H-1,2,4-triazole-3-carboxamide] | 10000 nM |
| 0.257 µM | O=C(Nc1cccc(Cl)c1F)c1ncn(Cc2cnccn2)n1 [Example 32, N-(3-chloro-2-fluoro-phenyl)-1-(pyrazin-2-ylmethyl)-1H-1,2,4-triazole-3-carboxamide] | 1920 nM |
| 0.804 µM | Cn1cc(-c2cc(Cl)c(F)c(NC(=O)c3ncn(Cc4ccccc4)n3)c2)cn1 [Example 36, 1-benzyl-N-(3-chloro-2-fluoro-5-(1-methyl-1H-pyrazol-4-yl)phenyl)-1H-1,2,4-triazole-3-carboxamide] | 10000 nM |
| 0.0484 µM | O=C(Nc1cccc(Cl)c1F)c1nc2n(n1)[C@H](c1ccccc1)C[C@@H]2F [Example 47, (5S,7S)—N-(3-chloro-2-fluorophenyl)-7-fluoro-5-phenyl-6,7-dihydro-5H-pyrrolo[1,2-b][1,2,4]triazole-2-carboxamide] | 24.8 nM |
| 0.0186 µM | O=C1c2nn(Cc3cc(F)ccc3F)c(Cl)c2CCN1c1cccc(Cl)c1F [Example 50, 3-Chloro-6-(3-chloro-2-fluorophenyl)-2-(2,5-difluorobenzyl)-5,6-dihydro-2H-pyrazolo[3,4-c]pyridin-7(4H)-one] | 42.5 nM |
| 0.131 µM | O=C1c2nn(Cc3cncc(F)c3)c(Cl)c2CCN1c1cccc(Cl)c1F [Example 54, 3-Chloro-6-(3-chloro-2-fluorophenyl)-2-((5-fluoropyridin-3-yl)methyl)-5,6-dihydro-2H-pyrazolo[3,4-c]pyridin-7(4H)-one] | 128 nM |
| 0.022 µM | COc1c2c(nn1Cc1cc(F)ccc1F)C(=O)N(c1cccc(Cl)c1F)CC2 [Example 57, 6-(3-Chloro-2-fluorophenyl)-2-(2,5-difluorobenzyl)-3-methoxy-5,6-dihydro-2H-pyrazolo[3,4-c]pyridin-7(4H)-one] | 115 nM |
| 0.297 µM | NC(=O)c1cccc(Cn2nc3c(c2Cl)CCN(c2cccc(Cl)c2F)C3=O)c1 [Example 75, 3-((3-chloro-6-(3-chloro-2-fluorophenyl)-7-oxo-4,5,6,7-tetrahydro-2H-pyrazolo[3,4-c]pyridin-2-yl)methyl)benzamide] | 1160 nM |

| Structure (SMILES) | IC50 (RIPK1) | IC50 (U937 cells) |
| --- | --- | --- |
| O=C(Nc1cccc(Cl)c1F)c1ncn(Cc2ccccc2F)n1 [Example 12, N-(3-chloro-2-fluorophenyl)-1-(2-fluorobenzyl)-1H-1,2,4-triazole-3-carboxamide] | 0.0186 µM | 657 nM |
| Cc1nc(C(=O)Nc2cccc(Cl)c2F)nn1Cc1ccccc1 [Example 13, 1-benzyl-N-(3-chloro-2-fluorophenyl)-5-methyl-1H-1,2,4-triazole-3-carboxamide] | 0.0419 µM | 1270 nM |
| O=C(Nc1cccc(Cl)c1F)c1ncn(Cc2ccccc2)n1 [Example 27, 1-benzyl-N-(3-chloro-2-fluorophenyl)-1H-1,2,4-triazole-3-carboxamide] | 0.0306 µM | 851 nM |
| O=C(Nc1ccc(F)c(Cl)c1F)c1ncn(Cc2ccccc2)n1 [Example 28, 1-benzyl-N-(3-chloro-2,4-difluorophenyl)-1H-1,2,4-triazole-3-carboxamide] | 0.0403 µM | 1470 nM |
| N#Cc1cccc(Cn2cnc(C(=O)Nc3cccc(Cl)c3F)n2)c1 [Example 29, N-(3-chloro-2-fluorophenyl)-1-(3-cyanobenzyl)-1H-1,2,4-triazole-3-carboxamide] | 0.0341 µM | 356 nM |
| COc1ccc(NC(=O)c2ncn(Cc3ccccc3)n2)c(F)c1Cl [Example 30, 1-benzyl-N-(3-chloro-2-fluoro-4-methoxy-phenyl)-1H-1,2,4-triazole-3-carboxamide] | 0.11 µM | 1490 nM |
| O=C(Nc1ccc(O)c(Cl)c1F)c1ncn(Cc2ccccc2)n1 [Example 31, 1-benzyl-N-(3-chloro-2-fluoro-4-hydroxy-phenyl)-1H-1,2,4-triazole-3-carboxamide] | 0.16 µM | 1700 nM |
| N#Cc1ccc(Cn2cnc(C(=O)Nc3cccc(Cl)c3F)n2)cc1 [Example 33, N-(3-chloro-2-fluoro-phenyl)-1-(4-cyano-benzyl)-1H-1,2,4-triazole-3-carboxamide] | 0.389 µM | 5420 nM |
| N#Cc1cc(Cl)c(F)c(NC(=O)c2ncn(Cc3ccccc3)n2)c1 [Example 35, 1-benzyl-N-(3-chloro-5-cyano-2-fluorophenyl)-1H-1,2,4-triazole-3-carboxamide] | 0.703 µM | 7290 nM |
| O=C(Nc1ccc(OC(F)(F)F)cc1F)c1ncn(Cc2ccccc2)n1 [Example 51, 1-benzyl-N-(2-fluoro-4-(trifluoromethoxy)-phenyl)-1H-1,2,4-triazole-3-carboxamide] | 0.807 µM | 8240 nM |
| Cc1nc(C(=O)Nc2ccc(OC(F)(F)F)cc2)nn1Cc1ccccc1 [Example 52, 1-benzyl-5-methyl-N-(4-(trifluoromethoxy)-phenyl)-1H-1,2,4-triazole-3-carboxamide] | 4.62 µM | > 10000 nM |
| Cc1ccc(Cn2cnc(C(=O)Nc3cccc(Cl)c3F)n2)cc1 [Example 86, N-(3-chloro-2-fluorophenyl)-1-(4-methylbenzyl)-1H-1,2,4-triazole-3-carboxamide] | 0.564 µM | 2080 nM |
| Cc1ccc(Cn2cnc(C(=O)Nc3cccc(Cl)c3F)n2)cc1F [Example 87, N-(3-chloro-2-fluorophenyl)-1-(3-fluoro-4-methylbenzyl)-1H-1,2,4-triazole-3-carboxamide] | 0.0322 µM | 4300 nM |
